Values of other authors in patent US5091169A, “Dipyridoxyl phosphate NMRI contrast agent compositions” (priority 1989, dated 1992).

Conditions: cited from earlier work

Compound | stability of manganese(II) complex (above pH 5, Frost et al) | log Kf (formation constant) (manganese chelate, reported by L'Eplathenier et al)
O=C([O-])C(NCCNC(C(=O)[O-])c1ccccc1O)c1ccccc1O.[Mn+2] (centres unmarked) [Mn(II) chelates of EHPG] | irreversibly oxidized | 
O=C([O-])CN(CCN(CC(=O)[O-])Cc1ccccc1O)Cc1ccccc1O.[Mn+2] [manganese chelate of N,N'-bis(2-hydroxybenzyl)ethylenediamine-N,N'-diacetic acid] |  | 14.8
